Among the data in ChEMBL document CHEMBL3046517, “Synthesis and antimicrobial study of fluoroquinolone-based 4-thiazolidinones” (2010) are MIC values, retold here.

In brackets after ≈: the same amount, converted by molar mass.

What all share (type): functional
One assay relates to Candida albicans. The assay is described as follows: Antifungal activity against Candida albicans by broth dilution method. A general note: Broth dilution looks for growth in wells or tubes with falling amounts of substance.
In the next assay the test system is Streptococcus pyogenes. As to the kind of experiment: Antibacterial activity against Streptococcus pyogenes by broth dilution method.
For the next assay, the system named is Aspergillus clavatus. As to the kind of experiment: Antifungal activity against Aspergillus clavatus by broth dilution method.
For the next assay, the system named is Aspergillus niger. The assay is described as follows: Antifungal activity against Aspergillus niger by broth dilution method.
In the next assay the test system is Staphylococcus aureus. The assay is described as follows: Antibacterial activity against Staphylococcus aureus by broth dilution method.
In a further assay the test system is Escherichia coli. The assay is described as follows: Antibacterial activity against Escherichia coli by broth dilution method.
Another assay has as its system Pseudomonas aeruginosa. The assay is described as follows: Antibacterial activity against Pseudomonas aeruginosa by broth dilution method.

The term MIC denotes the lowest concentration found to suppress growth. The low end stands for inhibition by little substance, the high end for a need for much substance. For `COc1ccc(N2CCN(c3cc4c(cc3F)c(=O)c(C(=O)N/N=C\c3ccc(Cl)cc3)cn4C3CC3)CC2)cc1`, the MIC in the assay with Candida albicans turned out to be 1000 µg/mL (≈ 1740 µM); in the assay with Streptococcus pyogenes, 500 µg/mL (≈ 871 µM); against Aspergillus clavatus, 1000 µg/mL (≈ 1740 µM); in the assay on Aspergillus niger, 1000 µg/mL (≈ 1740 µM); with Staphylococcus aureus it was 1000 µg/mL (≈ 1740 µM); in the assay on Escherichia coli, 1000 µg/mL (≈ 1740 µM). Further, in the assay on Pseudomonas aeruginosa, the MIC is 1000 µg/mL (≈ 1740 µM).

Regarding `NNC(=O)c1cn(C2CC2)c2cc(Cl)c(F)cc2c1=O`, the MIC in the assay with Candida albicans is 200 µg/mL (≈ 676 µM); against Streptococcus pyogenes, 500 µg/mL (≈ 1690 µM); against Aspergillus clavatus, 500 µg/mL (≈ 1690 µM); against Aspergillus niger, 500 µg/mL (≈ 1690 µM); with Staphylococcus aureus, 500 µg/mL (≈ 1690 µM); in the assay with Escherichia coli, 500 µg/mL (≈ 1690 µM). For the same compound, in the assay on Pseudomonas aeruginosa, the lowest concentration to inhibit growth (MIC) was 500 µg/mL (≈ 1690 µM).

Consider `O=C(N/N=C\c1ccccc1)c1cn(C2CC2)c2cc(Cl)c(F)cc2c1=O`, for which the MIC against Candida albicans is 500 µg/mL (≈ 1300 µM); with Streptococcus pyogenes, 1000 µg/mL (≈ 2610 µM); in the assay on Aspergillus clavatus, 1000 µg/mL (≈ 2610 µM); in the assay on Aspergillus niger, 1000 µg/mL (≈ 2610 µM); in the assay with Staphylococcus aureus, 500 µg/mL (≈ 1300 µM); against Escherichia coli it was 500 µg/mL (≈ 1300 µM). In the assay with Pseudomonas aeruginosa, the MIC was 1000 µg/mL (≈ 2610 µM).

Turning to `COc1cc(/C=N\NC(=O)c2cn(C3CC3)c3cc(Cl)c(F)cc3c2=O)ccc1O`, the minimal inhibitory concentration (MIC) was 100 µg/mL (≈ 233 µM) against Candida albicans; 500 µg/mL (≈ 1160 µM) with Streptococcus pyogenes; 1000 µg/mL (≈ 2330 µM) against Aspergillus clavatus; 500 µg/mL (≈ 1160 µM) in the assay with Aspergillus niger; 200 µg/mL (≈ 465 µM) with Staphylococcus aureus; 100 µg/mL (≈ 233 µM) in the assay with Escherichia coli. In addition, the MIC in the assay with Pseudomonas aeruginosa was 200 µg/mL (≈ 465 µM).

`O=C(N/N=C\c1ccc(Cl)cc1)c1cn(C2CC2)c2cc(Cl)c(F)cc2c1=O`: the minimum inhibitory concentration (MIC) in the assay on Candida albicans was 1000 µg/mL (≈ 2390 µM); against Streptococcus pyogenes it was 1000 µg/mL (≈ 2390 µM); against Aspergillus clavatus, 500 µg/mL (≈ 1200 µM); in the assay with Aspergillus niger, 500 µg/mL (≈ 1200 µM); against Staphylococcus aureus, 1000 µg/mL (≈ 2390 µM); with Escherichia coli, 1000 µg/mL (≈ 2390 µM). In the assay with Pseudomonas aeruginosa, inhibition of growth (MIC) required 1000 µg/mL (≈ 2390 µM).

Take `COc1ccc(N2CCN(c3cc4c(cc3F)c(=O)c(C(=O)N/N=C\c3ccc(F)cc3)cn4C3CC3)CC2)cc1`: the MIC with Candida albicans stood at 500 µg/mL (≈ 897 µM); with Streptococcus pyogenes, 500 µg/mL (≈ 897 µM); in the assay with Aspergillus clavatus, 500 µg/mL (≈ 897 µM); against Aspergillus niger, 500 µg/mL (≈ 897 µM); in the assay on Staphylococcus aureus it was 500 µg/mL (≈ 897 µM); against Escherichia coli, 250 µg/mL (≈ 448 µM). Also, in the assay on Pseudomonas aeruginosa, the MIC worked out at 500 µg/mL (≈ 897 µM).

Regarding `COc1ccc(N2CCN(c3cc4c(cc3F)c(=O)c(C(=O)N/N=C\c3ccccc3[N+](=O)[O-])cn4C3CC3)CC2)cc1`, the MIC in the assay on Candida albicans was determined as 1000 µg/mL (≈ 1710 µM); in the assay on Streptococcus pyogenes it was 150 µg/mL (≈ 257 µM); in the assay with Aspergillus clavatus, 1000 µg/mL (≈ 1710 µM); against Aspergillus niger it was 1000 µg/mL (≈ 1710 µM); against Staphylococcus aureus it was 150 µg/mL (≈ 257 µM); against Escherichia coli, 50 µg/mL (≈ 85.5 µM). In the assay with Pseudomonas aeruginosa, 100 µg/mL (≈ 171 µM) was the least that counted as inhibitory (MIC).

With `COc1ccc(N2CCN(c3cc4c(cc3F)c(=O)c(C(=O)NN3C(=O)CSC3c3ccccc3[N+](=O)[O-])cn4C3CC3)CC2)cc1` (stereo not given), the MIC is 1000 µg/mL (≈ 1520 µM) in the assay with Candida albicans; 500 µg/mL (≈ 759 µM) with Streptococcus pyogenes; 1000 µg/mL (≈ 1520 µM) against Aspergillus clavatus; 1000 µg/mL (≈ 1520 µM) with Aspergillus niger; 200 µg/mL (≈ 304 µM) in the assay with Staphylococcus aureus; 500 µg/mL (≈ 759 µM) against Escherichia coli. In the assay on Pseudomonas aeruginosa, this compound yielded an MIC of 100 µg/mL (≈ 152 µM).

Take `COc1ccc(N2CCN(c3cc4c(cc3F)c(=O)c(C(=O)N/N=C\c3ccc(O)c(OC)c3)cn4C3CC3)CC2)cc1`: the MIC in the assay on Candida albicans is 1000 µg/mL (≈ 1710 µM); against Streptococcus pyogenes, 500 µg/mL (≈ 854 µM); against Aspergillus clavatus it was 1000 µg/mL (≈ 1710 µM); against Aspergillus niger, 1000 µg/mL (≈ 1710 µM); with Staphylococcus aureus, 500 µg/mL (≈ 854 µM); in the assay with Escherichia coli, 150 µg/mL (≈ 256 µM). The same compound gave an MIC against Pseudomonas aeruginosa of 200 µg/mL (≈ 342 µM).

With `COc1ccc(N2CCN(c3cc4c(cc3F)c(=O)c(C(=O)NN3C(=O)CSC3c3ccc(F)cc3)cn4C3CC3)CC2)cc1` (stereo not given), the MIC against Candida albicans, in the assay with Streptococcus pyogenes, in the assay on Aspergillus clavatus, with Aspergillus niger, in the assay on Staphylococcus aureus and with Escherichia coli was 1000 µg/mL (≈ 1580 µM) in each case. For the same compound, in the assay with Pseudomonas aeruginosa, the lowest concentration to inhibit growth (MIC) was 500 µg/mL (≈ 792 µM).

For `COc1ccc(N2CCN(c3cc4c(cc3F)c(=O)c(C(=O)NN3C(=O)CSC3c3ccccc3Cl)cn4C3CC3)CC2)cc1` (stereo not given), the MIC against Candida albicans is 1000 µg/mL (≈ 1540 µM); against Streptococcus pyogenes, 100 µg/mL (≈ 154 µM); in the assay with Aspergillus clavatus, 1000 µg/mL (≈ 1540 µM); in the assay on Aspergillus niger, > 1000 µg/mL; in the assay on Staphylococcus aureus it was 500 µg/mL (≈ 771 µM); in the assay on Escherichia coli it was 1000 µg/mL (≈ 1540 µM). Also, the MIC in the assay on Pseudomonas aeruginosa was 500 µg/mL (≈ 771 µM).

Take `COc1ccc(N2CCN(c3cc4c(cc3F)c(=O)c(C(=O)NN3C(=O)CSC3c3ccccc3O)cn4C3CC3)CC2)cc1` (stereo not given): the MIC in the assay on Candida albicans is 500 µg/mL (≈ 794 µM); against Streptococcus pyogenes it was 500 µg/mL (≈ 794 µM); in the assay on Aspergillus clavatus, 1000 µg/mL (≈ 1590 µM); with Aspergillus niger it was 1000 µg/mL (≈ 1590 µM); with Staphylococcus aureus, 500 µg/mL (≈ 794 µM); against Escherichia coli it was 500 µg/mL (≈ 794 µM). Also, it took 1000 µg/mL (≈ 1590 µM) to inhibit growth in the assay on Pseudomonas aeruginosa (MIC).

For the compound `O=C(N/N=C\c1ccccc1[N+](=O)[O-])c1cn(C2CC2)c2cc(Cl)c(F)cc2c1=O`, the MIC is 500 µg/mL (≈ 1170 µM) with Candida albicans; 200 µg/mL (≈ 466 µM) against Streptococcus pyogenes; > 1000 µg/mL in the assay with Aspergillus clavatus; 1000 µg/mL (≈ 2330 µM) against Aspergillus niger; 100 µg/mL (≈ 233 µM) against Staphylococcus aureus; 500 µg/mL (≈ 1170 µM) in the assay with Escherichia coli. Further, 200 µg/mL (≈ 466 µM) was the least that counted as inhibitory in the assay with Pseudomonas aeruginosa (MIC).

For `COc1ccc(N2CCN(c3cc4c(cc3F)c(=O)c(C(=O)NN3C(=O)CSC3c3cccc([N+](=O)[O-])c3)cn4C3CC3)CC2)cc1` (stereo not given), the MIC in the assay with Candida albicans is 1000 µg/mL (≈ 1520 µM); against Streptococcus pyogenes it was 1000 µg/mL (≈ 1520 µM); in the assay on Aspergillus clavatus, > 1000 µg/mL; with Aspergillus niger it was 1000 µg/mL (≈ 1520 µM); in the assay on Staphylococcus aureus, 500 µg/mL (≈ 759 µM); against Escherichia coli, 500 µg/mL (≈ 759 µM). In addition, in the assay on Pseudomonas aeruginosa, inhibition of growth (MIC) required 200 µg/mL (≈ 304 µM).

For `O=C(N/N=C\c1ccccc1Cl)c1cn(C2CC2)c2cc(Cl)c(F)cc2c1=O`, the MIC in the assay with Candida albicans worked out at 1000 µg/mL (≈ 2390 µM); against Streptococcus pyogenes, 100 µg/mL (≈ 239 µM); in the assay on Aspergillus clavatus, 500 µg/mL (≈ 1200 µM); against Aspergillus niger, 500 µg/mL (≈ 1200 µM); with Staphylococcus aureus, 200 µg/mL (≈ 478 µM); with Escherichia coli, 50 µg/mL (≈ 120 µM). Moreover, in the assay on Pseudomonas aeruginosa, 100 µg/mL (≈ 239 µM) was the least that counted as inhibitory (MIC).
